Results on nine molecules are retold here after ChEMBL document CHEMBL3745628, “ent-Abietane-type diterpenoids from the roots of Euphorbia ebracteolata with their inhibitory activities on LPS-induced NO production in RAW 264.7 macrophages” (Bioorg Med Chem Lett, 2016).

For data set [1], the system named is RAW264.7. Nature of the data set: Antiinflammatory activity in mouse RAW264.7 cells assessed as inhibition of LPS-induced NO production after 24 hrs by Griess method. In kind it is functional, cell-based. Conditions: RAW264.7, 24 h. In general terms: Nitrite, measured by Griess reagent, commonly stands in for NO production.
Data set [2] relates to RAW264.7. Nature of the data set: Cytotoxicity against mouse RAW264.7 cells assessed as reduction in cell viability at IC50 by MTT assay. In kind it is cell-based. In general terms: Formazan colour is commonly taken as a measure of viable cells.

With `CC1=C2C(=O)C3=C([C@@H](O)[C@H]2OC1=O)[C@]1(C)CCCC(C)(C)[C@H]1CC3`, in the data set on RAW264.7 [1], the IC50 was determined as 0.69 µM. Also, the Activity result in the data set on RAW264.7 [2] is recorded as “Non-toxic”.

As for `CC1=C2[C@@H](O)C3=C([C@@H](O)[C@H]2OC1=O)[C@]1(C)CCCC(C)(C)[C@H]1CC3`, the half-inhibitory concentration (IC50) in the data set on RAW264.7 [1] amounted to 33.1 µM. The Activity entry in the data set on RAW264.7 [2] is “Non-toxic”.

For the molecule `CC1=C2[C@@H](O)C3=CC[C@@H]4C(C)(C)CCC[C@@]4(C)[C@@H]3[C@@H](O)[C@H]2OC1=O`, the IC50 with RAW264.7 [1] came to 14.2 µM. Also, the Activity result in the data set with RAW264.7 [2] was “Non-toxic”.

As to `CO[C@@]12OC(=O)C(C)=C1C=C1CC[C@@H]3C(C)(C)CCC[C@@]3(C)[C@@H]1[C@H]2O`, in the data set with RAW264.7 [1], the half-maximal inhibitory concentration (IC50) is 1.97 µM. Further, the Activity result in the data set with RAW264.7 [2] is “Non-toxic”.

For the molecule `CC1=C2C(=C[C@H]3[C@]4(C)CCCC(C)(C)[C@H]4CC[C@]34O[C@H]24)OC1=O`, the IC50 in the data set with RAW264.7 [1] is 25 µM. Further, the Activity result in the data set on RAW264.7 [2] is on record as “Non-toxic”.

As for `CC1=C2C=C3CC[C@@H]4C(C)(C)CCC[C@@]4(C)[C@@H]3[C@@H](O)[C@H]2OC1=O`, the IC50 in the data set with RAW264.7 [1] turned out to be 5.94 µM. The Activity result with RAW264.7 [2] is given as “Non-toxic”.

For `CC1=C2[C@H]3O[C@]34CC[C@@H]3C(C)(C)CCC[C@@]3(C)[C@@H]4[C@@H](O)[C@H]2OC1=O`, in the data set with RAW264.7 [1], the IC50 stood at 6.98 µM. The Activity result in the data set on RAW264.7 [2] is “Non-toxic”.

For the molecule `CC1=C2[C@@H](O)[C@@]3(O)CC[C@@H]4C(C)(C)CCC[C@@]4(C)[C@@H]3[C@@H](O)[C@H]2OC1=O`, the IC50 in the data set with RAW264.7 [1] was found to be 4.44 µM. Further, the Activity entry in the data set with RAW264.7 [2] is listed as “Non-toxic”.

In the case of `CC1=C2[C@H](OC1=O)[C@H](O)[C@H]1[C@]3(C)CCCC(C)(C)[C@H]3CC[C@@]1(O)[C@H]2O`, the IC50 in the data set on RAW264.7 [1] came out at 15.5 µM. The Activity entry with RAW264.7 [2] is “Non-toxic”.

By IC50 is commonly meant the concentration at which inhibition is half-maximal.
